Measured values published in patent US5770378A, “Tricyclic retinoids, methods for their production and use” (Ligand Pharmaceuticals, Inc., priority 1995, dated 1998).

Key:
RAR and RXR receptors = assay: Co-transfection assay, RAR and RXR receptors overall; assay type: cell-based; details: for receptor subfamily selectivity: RAR versus RXR; for potency profile versus 9-cis retinoic acid: pan-agonist compounds
Procedure: (§1) Utilizing the "cis-trans" or "co-transfection" assay described by Evans et al., Science, 240:889-95 (May 13, 1988), the disclosure of which is herein incorporated by reference, the retinoid compounds of the present invention were tested and found to have strong, specific activity as either selective RAR agonists, selective RXR agonists, or as pan-agonist activators of both RAR and RXR receptors. This assay is described in further detail in U.S. Pat. Nos. 4,981,784 and 5,071,773, the disclosures of which are incorporated herein by reference.
(§2) In the co-transfection assay, a cloned cDNA for an IR (e.g., human RARα, RARβ, RXRγ) under the control of a constitutive promoter (e.g., the SV 40 promoter) is introduced by transfection (a procedure to induce cells to take up foreign genes) into a background cell substantially devoid of endogenous IRs. This introduced gene directs the recipient cells to make the IR protein of interest. A second gene is also introduced (co-transfected) into the same cells in conjunction with the IR gene. This second gene, comprising the cDNA for a reporter protein, such as firefly luciferase (LUC), controlled by an appropriate hormone responsive promoter containing a hormone response element (HRE). This reporter plasmid functions as a reporter for the transcription-modulating activity of the target IR. Thus, the reporter acts as a surrogate for the products (mRNA then protein) normally expressed by a gene under control of the target receptor and its native hormone.
(§3) The co-transfection assay can detect small molecule agonists or antagonists of target IRs. Exposing the transfected cells to an agonist ligand compound increases reporter activity in the transfected cells. This activity can be conveniently measured, e.g., by increasing luciferase production, which reflects compound-dependent, IR-mediated increases in reporter transcription. […] . Increasing concentrations of a suspected antagonist will decrease the reporter signal (e.g., luciferase production). The co-transfection assay is therefore useful to detect both agonists and antagonists of specific IRs. Furthermore, it determines not only whether a compound interacts with a particular IR, but whether this interaction mimics (agonizes) or blocks (antagonizes) the effects of the native regulatory molecules on target gene expression, as well as the specificity and strength of this interaction.
To determine RAR and/or RXR agonist activity of the compounds of the present invention, the CV-1 cells were transiently transfected by calcium phosphate coprecipitation according to the procedure of Berger et al., 41 J.Steroid Biochem. Mol. Biol., 733 (1992) with the following receptor expressing plasmids: pRShRARα: Giguere et al., 330 Nature, 624 (1987); pRShRARβ and pRShRARγ, Ishikawa et al., 4 Mol. Endocrin., 837 (1990); pRShRXRα, Mangelsdorf et al., 345 Nature, 224 (1990); and pRSmRXRβ and pRSmRXRγ, Mangelsdorf et al., 6 Genes & Devel., 329 (1992), the disclosures of which are herein incorporated by reference. Each of these receptor expressing plasmids was co-transfected at a concentration of 5 ng/well, along with a basal reporter plasmid at 100 ng/well, the internal control plasmid pRS-β-Gal at 50 ng/well and filler DNA, pGEM at 45 ng/well.

RARs = assay: Co-transfection assay, RARs overall; assay type: cell-based, human
Procedure: as §1, §2
as §3, with “interaction. […]” for “interaction.”

receptor subfamily selectivity (RAR and RXR receptors)	potency profile versus 9-cis retinoic acid (RAR and RXR receptors)	SMILES	RAR activity (RARs)
RAR selective		CC(/C=C/C=C1\CCOc2cc3c(cc21)C(C)(C)CCC3(C)C)=C\C(=O)O [Compound 119b, (2E,4E)-3-Methyl-6-[(E)-2,3,6,7,8,9-hexahydro-6,6,9,9-tetramethyl-benzo[g]chromen-4-ylidene]hexa-2,4-dienoic acid]	extremely potent RAR active
	superior potency profiles	CC(/C=C/CC1CCCc2cc3c(cc21)C(C)(C)CCC3(C)C)=C\C(=O)O (racemic) [Compound 124b, (2E,4E)-3-Methyl-6-(1,2,3,4,5,6,7,8-octahydro-5,5,8,8-tetramethylanthracen-1-yl)hexa-2,4-dienoic acid]	
	superior potency profiles	CC(/C=C/C=C1/CCOc2cc3c(cc21)C(C)(C)CCC3(C)C)=C\C(=O)O [Compound 144b]	extremely potent RAR active

The next lines start with the molecule.

SMILES	receptor subfamily selectivity (RAR and RXR receptors)	potency profile versus 9-cis retinoic acid (RAR and RXR receptors)	RAR activity (RARs)
CC(/C=C/C=C1\CCCc2cc3c(cc21)C(C)(C)CCC3(C)C)=C\C(=O)O [Compound 109b, (2E,4E)-3-Methyl-6-[(E)-3,4,5,6,7,8-hexahydro-5,5,8,8-tetramethyl-2H-anthracen-1-ylidene]hexa-2,4-dienoic acid]	RAR selective		extremely potent RAR active
CC(/C=C/C=C1/CCCc2cc3c(cc21)C(C)(C)CCC3(C)C)=C\C(=O)O [Compound 101b, (2E,4E)-3-Methyl-6-[(Z)-3,4,5,6,7,8-hexahydro-5,5,8,8-tetramethyl-2H-anthracen-1-ylidene]hexa-2,4-dienoic acid]		superior potency profiles	extremely potent RAR active
